SMILES strings stand for the structures. “Also recorded” adds a separate entry of the source.

The text below walks through data of article PMC6032053, “Design, Synthesis, Cytotoxic Evaluation and Molecular Docking of New Fluoroquinazolinones as Potent Anticancer Agents with Dual EGFR Kinase and Tubulin Polymerization Inhibitory Effects” (International Journal of Molecular Sciences, 2018).

Data set [1] relates to MCF-7. The data set is described as follows: In vitro cytotoxic screening (MTT assay), MCF-7. In kind it is cell-based, human. As to conditions: for IC50: Homo sapiens, MCF7, MTT assay, 24 h, MCF-7 cell line; for IC50 / Selectivity index S2: mean ± SD; for Cell line selectivity: S1 > S2: more selective to MDA-MBA-231, S2 > S1: more selective to MCF-7; for Selectivity index S2: S2 = IC50 (MDA-MBA-231)/IC50 (MCF-7). Here is the method:
(§1) Cell lines were obtained from American Type Culture Collection, cells were cultured using DMEM (Invitrogen Life Technologies, Waltham, MA, USA) supplemented with 10% FBS (Hyclone, Logan, UT, USA), 10 µg/mL of insulin (Sigma, St. Louis, MO, USA), and 1% penicillin-streptomycin. […] At the end of the incubation, the cells were harvested and washed with PBS. 20 µL of MTT was added to each well and incubated for 2 h before 200 µL DMSO was added. The absorbance was measured on an ELISA reader (Multiskan EX, Lab systems, Waltham, MA, USA) at wavelength of 570 nm.
(§2) All assays were performed in triplicate. The results were expressed as mean ± SD (standard deviation) using Student’s t test.
(In general: Tetrazolium dyes change colour on reduction, which living cells bring about.)

Data set [2] concerns MDA-MBA-231. The data set is described as follows: In vitro cytotoxic screening (MTT assay), MDA-MBA-231. As to conditions: mean ± SD; for IC50: 24 h, MTT assay, MDA-MBA-231 cell line; for Selectivity index S1: S1 = IC50 (MCF-7)/IC50 (MDA-MBA-231). In kind it is cell-based, human. Here is the method:
as §1, §2

Data set [3] addresses EGFR-TK (Homo sapiens, UniProt P00533). Briefly: EGFR inhibition assay (HT Scan EGFR kinase assay kit).
Procedure: EGFR kinase activity was measured by HT Scan EGFR kinase assay kits (Cell Signaling Technology, Danvers, MA, USA). The experiments were performed following the manufacturer’s directions. […] Strapavidin-coated 96-well plates were used to take phosphorylated substrate. Anti-phosphotyrosine and europium-labeled secondary antibodies (DELFIA, Perkin-Elmer, Akron, OH, USA) were used to monitor the level of phosphorylation.

Chain of EGFR-TK (P00533 25-1210): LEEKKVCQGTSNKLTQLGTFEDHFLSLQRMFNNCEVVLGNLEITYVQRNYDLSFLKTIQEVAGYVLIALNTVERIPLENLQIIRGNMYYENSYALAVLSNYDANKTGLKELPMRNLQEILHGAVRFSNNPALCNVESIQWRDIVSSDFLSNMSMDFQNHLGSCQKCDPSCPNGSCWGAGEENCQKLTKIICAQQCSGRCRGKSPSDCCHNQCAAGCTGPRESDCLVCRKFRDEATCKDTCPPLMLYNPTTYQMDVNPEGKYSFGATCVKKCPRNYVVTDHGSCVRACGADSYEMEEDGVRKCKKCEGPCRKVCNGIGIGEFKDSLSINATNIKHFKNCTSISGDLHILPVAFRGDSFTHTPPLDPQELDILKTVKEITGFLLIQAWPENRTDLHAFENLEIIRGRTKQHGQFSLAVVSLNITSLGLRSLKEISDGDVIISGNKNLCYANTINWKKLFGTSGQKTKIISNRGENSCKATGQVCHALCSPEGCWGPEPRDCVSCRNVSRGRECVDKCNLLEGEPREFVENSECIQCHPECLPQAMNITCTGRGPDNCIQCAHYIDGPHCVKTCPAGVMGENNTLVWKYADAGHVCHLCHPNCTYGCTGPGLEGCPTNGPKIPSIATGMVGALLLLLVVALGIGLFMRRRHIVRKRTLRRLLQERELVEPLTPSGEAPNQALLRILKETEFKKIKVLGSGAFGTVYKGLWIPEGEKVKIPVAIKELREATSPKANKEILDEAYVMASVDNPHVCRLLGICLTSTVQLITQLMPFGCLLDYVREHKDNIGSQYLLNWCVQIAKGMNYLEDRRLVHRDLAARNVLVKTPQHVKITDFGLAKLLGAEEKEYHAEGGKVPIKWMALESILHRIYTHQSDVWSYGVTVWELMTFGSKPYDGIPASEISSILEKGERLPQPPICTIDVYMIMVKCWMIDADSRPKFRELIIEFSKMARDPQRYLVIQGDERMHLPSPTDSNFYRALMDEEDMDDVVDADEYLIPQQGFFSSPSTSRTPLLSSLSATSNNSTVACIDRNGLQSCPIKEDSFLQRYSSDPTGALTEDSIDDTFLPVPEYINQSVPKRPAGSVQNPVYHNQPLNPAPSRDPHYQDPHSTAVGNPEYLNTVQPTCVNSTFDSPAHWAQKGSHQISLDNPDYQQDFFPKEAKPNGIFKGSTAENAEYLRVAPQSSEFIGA

For the compound `O=C1Nc2ccccc2/C1=N\n1c(-c2ccc(F)cc2)nc2ccc(F)cc2c1=O` [Compound 6, 3-(3-Iminoindolin-2-one)-6-fluoro-2-(4-flurophenyl)quinazoline-4(3H)-one], the melting point is 223 to 225 °C. Moreover, in data set [1], the IC50 came out at 350 ± 10 nM, the Cell line selectivity result is listed as “more selective to MCF-7 than MDA-MBA-231; also recorded: MCF-7 selective” and the “Selectivity index S2” value was determined as 3.94 ± 0.26. In addition, the IC50 in data set [2] (Homo sapiens) came out at 1380 ± 140 nM. Besides, the “Selectivity index S1” value in data set [2] was 0.25 ± 0.06. In addition, the IC50 in data set [3] is 75.2 ± 0.08 nM.

As to `O=c1c2cc(F)ccc2nc(-c2ccc(F)cc2)n1N=Cc1ccco1` [Compound 7, 3-((Furan-2-yl)methyleneamino)-6-fluoro-2-(4-fluorophenyl)quinazolin-4(3H)-one], the melting point fell in the range of 228 to 230 °C. Besides, in data set [1], the midpoint of inhibition, the IC50, lay at 1060 ± 30 nM; the Cell line selectivity result was “more selective to MDA-MBA-231 than MCF-7; also recorded: MDA-MBA-231 selective”; the “Selectivity index S2” value came to 0.89 ± 0.18. In data set [2] (Homo sapiens), the midpoint of inhibition, the IC50, lay at 940 ± 70 nM. The “Selectivity index S1” value in data set [2] was found to be 1.13 ± 0.09.

On to `O=c1c2cc(F)ccc2nc(-c2ccc(F)cc2)n1N=CC=Cc1ccccc1` [Compound 8, 3-(3-Phenylallylideneamino)-6-fluoro-2-(4-fluorophenyl)quinazolin-4(3H)-one], for which the melting point was in the range of 220 to 222 °C. For the same compound, in data set [1], the IC50 stood at 36600 ± 1810 nM, the Cell line selectivity result is “more selective to MDA-MBA-231 than MCF-7; also recorded: MDA-MBA-231 selective” and the “Selectivity index S2” value turned out to be 0.59 ± 0.02. Further, inhibition in data set [2] (Homo sapiens) was half-maximal at 21600 ± 1400 nM (IC50). In addition, the “Selectivity index S1” value in data set [2] turned out to be 1.69 ± 0.15.

In turn, `O=c1c2cc(F)ccc2nc(-c2ccc(F)cc2)n1N=Cc1ccccc1` [Compound 10a, 3-(Benzylideneamino)-6-fluoro-2-(4-fluorophenyl)quinazolin-4(3H)-one] had a melting point of 218 to 220 °C. In data set [1], the IC50 was determined as 950 ± 10 nM, the Cell line selectivity entry was “more selective to MCF-7 than MDA-MBA-231; also recorded: MCF-7 selective” and the “Selectivity index S2” value is given as 2.61 ± 0.09. This compound came in with an IC50 in data set [2] (Homo sapiens) of 2480 ± 170 nM. For the same compound, in data set [2], the “Selectivity index S1” value was 0.39 ± 0.01.

As for `Cc1ccc(C=Nn2c(-c3ccc(F)cc3)nc3ccc(F)cc3c2=O)cc1` [Compound 10b, 3-(4-Methylbenzylideneamino)-6-fluoro-2-(4-fluorophenyl)quinazoline-4(3H)-one], the melting point is 231 to 233 °C. Moreover, in data set [1], half-maximal inhibition (IC50) required 5070 ± 330 nM, the Cell line selectivity result is “more selective to MDA-MBA-231 than MCF-7; also recorded: MDA-MBA-231 selective” and the “Selectivity index S2” value was 0.61 ± 0.06. Moreover, in data set [2] (Homo sapiens), it took 3090 ± 80 nM to reach half-maximal inhibition (IC50). Besides, the “Selectivity index S1” value in data set [2] was 1.64 ± 0.21.

`COc1ccc(C=Nn2c(-c3ccc(F)cc3)nc3ccc(F)cc3c2=O)cc1` [Compound 10c, 3-(4-Methoxybenzylideneamino)-6-fluoro-2-(4-fluorophenyl)quinazolin-4(3H)-one]: the melting point was in the range of 228 to 230 °C. Moreover, in data set [1], the IC50 turned out to be 10400 ± 1140 nM, the Cell line selectivity result is given as “more selective to MDA-MBA-231 than MCF-7; also recorded: MDA-MBA-231 selective” and the “Selectivity index S2” value is listed as 0.10 ± 0.13. The compound further showed an IC50 in data set [2] (Homo sapiens) of 1090 ± 10 nM. For the same compound, the “Selectivity index S1” value in data set [2] turned out to be 9.57 ± 0.11.

In the case of `O=c1c2cc(F)ccc2nc(-c2ccc(F)cc2)n1N=Cc1ccc(F)cc1` [Compound 10d, 3-(4-Fluorobenzylideneamino)-6-fluoro-2-(4-fluorophenyl)quinazolin-4(3H)-one], the melting point was 232 to 234 °C. Besides, in data set [1], the IC50 was 890 ± 20 nM, the Cell line selectivity entry is recorded as “more selective to MDA-MBA-231 than MCF-7; also recorded: MDA-MBA-231 selective” and the “Selectivity index S2” value is 0.43 ± 0.09. Inhibition in data set [2] (Homo sapiens) was half-maximal at 382 ± 10 nM (IC50). Also, in data set [2], the IC50 worked out at 380 ± 10 nM and the “Selectivity index S1” value is reported as 2.34 ± 0.05.

Consider `O=c1c2cc(F)ccc2nc(-c2ccc(F)cc2)n1N=Cc1ccc([N+](=O)[O-])cc1` [Compound 10e, 3-(4-Nitrobenzylideneamino)-6-fluoro-2-(4-fluorophenyl)quinazolin-4(3H)-one], for which the melting point lay in the range of 235 to 237 °C. Besides, in data set [1], half-maximal inhibition (IC50) required 2610 ± 140 nM, the Cell line selectivity result was “more selective to MDA-MBA-231 than MCF-7; also recorded: MDA-MBA-231 selective” and the “Selectivity index S2” value came to 0.11 ± 0.17. In addition, the “Selectivity index S1” value in data set [2] worked out at 9.32 ± 0.08. In data set [3], the IC50 amounted to 170.08 ± 0.02 nM.

For `O=c1c2cc(F)ccc2nc(-c2ccc(F)cc2)n1N=Cc1ccc(Cl)cc1` [Compound 10f, 3-(4-Chlorobenzylideneamino)-6-fluoro-2-(4-fluorophenyl)quinazolin-4(3H)-one], the melting point is 224 to 226 °C. For the same compound, in data set [1], the IC50 stood at 710 ± 10 nM, the Cell line selectivity result is listed as “more selective to MCF-7 than MDA-MBA-231; also recorded: MCF-7 selective” and the “Selectivity index S2” value was 5.29 ± 0.31. This compound also came in with an IC50 in data set [2] (Homo sapiens) of 3760 ± 220 nM. For the same compound, the “Selectivity index S1” value in data set [2] is given as 9.57 ± 0.22.

In turn, `O=c1c2cc(F)ccc2nc(-c2ccc(F)cc2)n1N=Cc1ccc(O)cc1` [Compound 10g, 3-(4-Hydroxybenzylideneamino)-6-fluoro-2-(4-fluorophenyl) quinazolin-4(3H)-one] registered a melting point of 229 to 231 °C. Moreover, in data set [1], the IC50 was found to be 1320 ± 80 nM, the Cell line selectivity result is on record as “more selective to MCF-7 than MDA-MBA-231; also recorded: MCF-7 selective” and the “Selectivity index S2” value was determined as 1.92 ± 0.05. In data set [2] (Homo sapiens), this compound yielded an IC50 of 2540 ± 230 nM. For the same compound, the “Selectivity index S1” value in data set [2] was 0.52 ± 0.07.

As usually defined, the melting point is the temperature, or range, at which the solid turns liquid. The IC50 is the concentration needed to halve the response being measured. Lower therefore signals greater potency in that assay.
